Test results as given in patent US9187658B2, “Photopolymerizable inkjet ink, ink cartridge, and inkjet recording device” (Ricoh Company, Ltd., priority 2013, dated 2015).
Like-named read-outs stand apart in the source and are kept apart here. Each block holds one compound with its values, some of them ahead of it.

Assays:
[1] = test system: female mice; assay: Skin sensitization test, local lymph node assay (LLNA, OECD test guideline 429), BrdU intake by ELISA; conditions: test substance 50.0 w/v % in acetone/olive oil 4:1, 25 μL/auricle once a day for 3 days
Method: (§1) According to the skin sensitization test of local lymph node assay (LLNA) specified in OECD test guideline 429, the SI value was measured in the following manner.
(§2) Before treated with the test substances, the positive control or the vehicle control, female mice were acclimated for 8 days including 6-day quarantine. No abnormalities were found in all the mice (used animals) during the quarantine/acclimation period. Based on the body weights measured 2 days before the initiation of sensitization, they were categorized into 2 groups (4 mice/group) by the body weight stratified random sampling method so that the body weight of each individual was within ±20% of the average body weight of all the individuals. Each of the used animals was 8 weeks old to 9 weeks old at the time of the initiation of sensitization. […]
(§3) About 24 hours after the administration of BrdU, the used animals were allowed to undergo euthanasia, and their auricular lymph nodes were sampled. […] Also, the average of the weights of the auricular lymph nodes and the standard error thereof were calculated for each group. […]
(§4) After returning the auricular lymph nodes to room temperature, the auricular lymph nodes were mashed with the gradual addition of physiological saline, and suspended therein. […] The thus-dispensed suspensions were measured for intake of BrdU by the ELISA method. […]

[2] = test system: skin sensitization; conditions: cited from earlier work
[3] = test system: skin sensitization; conditions: vinyl ethers stated as negative; basis not given; cited from earlier work
[4] = test system: female mice; conditions: mouse, in vivo
Method: as §1, §2, §3, §4

Compound: C=C(C)C(=O)OCCOCCOC(=O)C(=C)C [Compound 2G, Diethylene glycol dimethacrylate]
- SI value (Stimulation Index) [1]: 1.1

Compound: O=C(c1ccccc1)C1(O)CCCCC1 [Irgacure 184, 1-hydroxycyclohexylphenyl ketone]
- Skin sensitization evaluated in MSDS [2]: no

Compound: Cc1cc(C)c(C(=O)P(=O)(C(=O)c2c(C)cc(C)cc2C)c2ccccc2)c(C)c1 [Irgacure 819, Bis(2,4,6-trimethylbenzoyl)-phenylphosphone oxide]
- Skin sensitization evaluated in MSDS ([2]; MSDS): yes

Compound: C=COCC [ethyl vinyl ether]
- Skin sensitization [3]: negative for skin sensitization

Compound: C=COCCCCO [hydroxybutyl vinyl ether]
- Skin sensitization [3]: negative for skin sensitization

Compound: C=COCCOCCOCCOC=C [triethylene glycol divinyl ether]
- Skin sensitization [3]: negative for skin sensitization

- SI value (Stimulation Index) [4]: 1.0
Compound: Caprolactone-modified dipentaerythritol hexaacrylate [DPCA60]
